For data set [1], the system named is L-929 (mouse fibroblast cells). Nature of the data set: In vitro cytotoxicity (MTT assay) on L-929 cells. In kind it is cell-based. The conditions noted are these: Mus musculus, read-out: IC50 values of cell viability. Here is the method: (§1) Five concentrations of each compound dissolved in 2% of DMSO in culture media (50 μL) were introduced into cell media (96-well plate). The cell cultures treated with ligands were incubated 24 h, and then the media were removed. The cell crudes were measured at 570 nm and 650 nm using a MTT reagent. All procedures and reagents followed ISO 10993-5 and ISO 10993-12.
(§2) 929, mouse fibroblast cells) were cultured in a 96 well plate and treated with 50 […]
(§3) concentration. After incubation at 37 ° C for 24 hours under CO […]
(§4) fluid, the treated culture medium was removed and the absorbance of each samples were measured at 570 and 650 nm using MTT reagent.
(§5) Blank was administered with only 50uL of cell incubation media. As a control, a 50 […]
(§6) n media was administered.
(§7) MTT assay followed ISO 10993 […]
(§8) values of cell viability for GMA 10, GMA 11, GMA 15, DPA

Data set [2] can be described thus: In vitro cytotoxicity (MTT assay) on L-929 cells. In kind it is cell-based, mouse. The conditions noted are these: mouse, L-929 mouse fibroblast cells, L-929, 24 h, MTT, read-out: Cell viability. Here is the method:
as §1, §2, §3, §4, §5, §6, §7, §8
On the technique in general: Formazan colour is commonly taken as a measure of viable cells.

A further data set addresses T1, TSPO (Homo sapiens, UniProt P30536).
T1 construct: from tissue; host or cells: isolated human leukocytes (membranes)
Kind of data set: In vitro TSPO binding assay, competition with [3H]PK11195 in membrane of human leukocytes.

[3] abbreviates: L929, L-929, 24 h, MTT, same values given in μM.

Where “and” joins values, the source holds several entries; their conditions need not be identical. Equal values may be shown once. Read-outs that look alike come from different tables or passages of the source.

T1 sequence (P30536 whole entry): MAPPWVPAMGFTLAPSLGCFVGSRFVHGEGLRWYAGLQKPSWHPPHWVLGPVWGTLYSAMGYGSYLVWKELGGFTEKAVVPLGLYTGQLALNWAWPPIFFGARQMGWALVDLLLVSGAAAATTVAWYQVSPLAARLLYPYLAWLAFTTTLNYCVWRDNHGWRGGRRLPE

Regarding `CCCN(CCC)C(=O)Cc1c(-c2ccc(F)cc2)nn2c(CC)cc(CC)nc12` [GMA 10, 2-(5,7-diethyl-2-(4-fluorophenyl)pyrazolo [1,5-a]pyrimidin-3-yl)-N,N-dipropylacetamide], the IC50 (usually the midpoint of a concentration-inhibition curve) in data set [1] (L929, L-929, 24 h, MTT) came out at 15.2 µg/mL. For the same compound, the IC50 in data set [1] (setting [3]) is 37.1 µM. Besides, in data set [2], the viability – broadly, a read-out of living cells in per cent, often relative to untreated cells – at 24 h, 3.125 μg/mL came out at 64.5 ± 1.19%; the viability at 24 h, 6.25 μg/mL amounted to 53.4 ± 2.02%; the viability at 24 h, 12.5 μg/mL turned out to be 39.8 ± 0.74%; the viability at 24 h, 25 μg/mL is 24.6 ± 3.13%. The viability at 24 h, 50 μg/mL in data set [2] turned out to be 19.8 ± 1.19%. The affinity on TSPO, expressed as Ki, was 0.18 nM.
For the compound `CCc1cc(CC)n2nc(-c3ccc(F)cc3)c(CC(=O)N(CCOC)CCOC)c2n1` [GMA 12, 2-(5,7-Diethyl-2-(4-fluorophenyl)pyrazolo [1,5-a]pyrimidin-3-yl)-N,N-bis(2-methoxyethyl) acetamide], the Ki (usually the dissociation constant of the complex between target and ligand, obtained from inhibition or displacement) on TSPO turned out to be 25.4 nM.
Still for that read-out and setting: the value for `CCc1cc(CC)n2nc(-c3ccc(F)cc3)c(CC(=O)N(CC)Cc3ccccc3OC)c2n1` [GMA 16, 2-(5,7-diethyl-2-(4-fluorophenyl)pyrazolo [1,5-a]pyrimidin-3-yl)-N-ethyl-N-(2-methoxybenzyl)acetamide] was 0.49 nM.
As to `CCC(C)N(C)C(=O)c1cc2ccccc2c(-c2ccccc2Cl)n1` (centres unmarked) [PK11195, reference compound], the IC50 in data set [1] (L929, 24 h) is 22.1 µg/mL and 62.7 µM. Moreover, in data set [2], the viability at 24 h, 3.125 μg/mL amounted to 57.8 ± 5.22%; the viability at 24 h, 6.25 μg/mL worked out at 49.08 ± 0.43%; the viability at 24 h, 12.5 μg/mL stood at 48.18 ± 0.43%; the viability at 24 h, 25 μg/mL came to 38.3 ± 4.8%. The viability at 24 h, 50 μg/mL in data set [2] came to 32.8 ± 3.14%.
On to `CCc1cc(CC)n2nc(-c3ccc(F)cc3)c(CC(=O)N(CC)Cc3cc(OC)ccc3OC)c2n1` [GMA 17, 2-(5,7-diethyl-2-(4-fluorophenyl)pyrazolo [1,5-a]pyrimidin-3-yl)-N-(2,5-dimethoxybenzyl)-N-ethylacetamide], for which, at TSPO, the Ki was 0.54 nM.
With `CCc1cc(CC)n2nc(-c3ccc(F)cc3)c(CC(=O)N(CC)c3ccccc3)c2n1` [GMA 15, 2-(5,7-diethyl-2-(4-fluorophenyl)pyrazolo [1,5-a]pyrimidin-3-yl)-N-ethyl-N-phenylacetamide], the IC50 in data set [1] (L929, L-929, 24 h, MTT) was found to be 9.73 µg/mL. Further, the IC50 in data set [1] (setting [3]) came out at 22.6 µM. Further, in data set [2], the viability at 24 h, 3.125 μg/mL was determined as 57.9 ± 4.04%; the viability at 24 h, 6.25 μg/mL is 50.6 ± 2.39%; the viability at 24 h, 12.5 μg/mL was 26 ± 8.01%; the viability at 24 h, 25 μg/mL worked out at 9.6 ± 1.6%. In data set [2], the viability at 24 h, 50 μg/mL was found to be 6.6 ± 2.15%. This compound returned a Ki on TSPO of 0.06 nM. Also, at TSPO (ratio of Ki values), the “fold enhancement in affinity compared to DPA-714” value amounted to 61 fold and the “fold higher affinity compared to PK11195” value stood at 22 fold.
Turning to `CCc1cc(CC)n2nc(-c3ccc(F)cc3)c(CC(=O)N(CC)CCOC)c2n1` [GMA 11, 2-(5,7-diethyl-2-(4-fluorophenyl)pyrazolo [1,5-a]pyrimidin-3-yl)-N-ethyl-N-(2-methoxyethyl) acetamide], the half-maximal inhibitory concentration (IC50) in data set [1] (L929, L-929, 24 h, MTT) is 36.2 µg/mL. Besides, the concentration for half-maximal inhibition (IC50) in data set [1] (setting [3]) is 87.8 µM. Moreover, in data set [2], the viability at 24 h, 3.125 μg/mL was 61.7 ± 0.71%; the viability at 24 h, 6.25 μg/mL was 58.3 ± 3.12%; the viability at 24 h, 12.5 μg/mL stood at 39.5 ± 0.63%; the viability at 24 h, 25 μg/mL was 33.5 ± 2.28%. In addition, the viability at 24 h, 50 μg/mL in data set [2] was 28.9 ± 1.12%. The compound also had an inhibition constant (Ki) on TSPO of 0.19 nM.
For the compound `CCc1cc(CC)n2nc(-c3ccc(F)cc3)c(CC(=O)N(CC)CC)c2n1` [GMA 8, 2-(5,7-diethyl-2-(4-fluorophenyl)pyrazolo [1,5-a]pyrimidin-3-yl)-N,N-diethylacetamide], affinity on TSPO was put at a Ki of 8.79 nM.
Still for that read-out and setting: for `CCc1cc(CC)n2nc(-c3ccc(F)cc3)c(CC(=O)N(C)CC)c2n1` [GMA 7, 2-(5,7-diethyl-2-(4-fluorophenyl)pyrazolo [1,5-a]pyrimidin-3-yl)-N-ethyl-N-methylacetamide] the value was 17.1 nM.
The same measure, in the same setting: for `CCc1cc(CC)n2nc(-c3ccc(F)cc3)c(CC(=O)N(CC)C(C)C)c2n1` [GMA 9, 2-(5,7-Diethyl-2-(4-fluorophenyl)pyrazolo [1,5-a]pyrimidin-3-yl)-N-ethyl-N-isopropyl acetamide] the value was 13.3 nM.
Take `C#CCN(CC#C)C(=O)Cc1c(-c2ccc(F)cc2)nn2c(CC)cc(CC)nc12` [GMA 13, 2-(5,7-diethyl-2-(4-fluorophenyl)pyrazolo [1,5-a]pyrimidin-3-yl)-N,N-di(prop-2-yn-1-yl) acetamide]: the inhibitory constant (Ki) on TSPO turned out to be 0.9 nM.
In the case of `CCN(CC)C(=O)Cc1c(-c2ccc(OCCF)cc2)nn2c(C)cc(C)nc12` [DPA-714, reference compound], the IC50 in data set [1] (L929, L-929, 24 h, MTT) worked out at 18.6 µg/mL. In data set [1] (setting [3]), the half-maximal inhibitory concentration (IC50) came to 46.7 µM. For the same compound, in data set [2], the viability at 24 h, 3.125 μg/mL turned out to be 51 ± 4.08%; the viability at 24 h, 6.25 μg/mL was determined as 47.3 ± 3.44%; the viability at 24 h, 12.5 μg/mL was 45.2 ± 1.86%; the viability at 24 h, 25 μg/mL worked out at 32.1 ± 2.54%. Also, the viability at 24 h, 50 μg/mL in data set [2] was determined as 11.2 ± 1.94%. Besides, the Ki on TSPO was found to be 3.66 nM.

These data come from article PMC10142799, “Synthesis, In Silico and In Vitro Characterization of Novel N,N-Substituted Pyrazolopyrimidine Acetamide Derivatives for the 18KDa Translocator Protein (TSPO)” (Pharmaceuticals, 2023).
